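Grown in 96-well plates, cells were treated for 48 hours with each compound at five concentrations. Insufficient inhibition: endpoint recorded as highest concentration tested. TGI: total growth inhibition.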
Experiments:
Assay in all cases: NCI tumour cell line growth inhibition, 48 h
BT-549 breast = system: BT-549 breast
COLO 205 colon = system: COLO 205 colon
MCF7 breast = system: MCF7 breast
MDA-N = system: MDA-N
NCI/ADR-RES ovarian = system: NCI/ADR-RES ovarian
PC-3 prostate = system: PC-3 prostate
RPMI-8226 leukemia = system: RPMI-8226 leukemia
SN12C renal = system: SN12C renal
SW-620 colon = system: SW-620 colon
HOP-92 NSCLC = system: HOP-92 NSCLC
KM20L2 colon = system: KM20L2 colon
NCI-H522 lung = system: NCI-H522 lung
OVCAR-4 ovarian = system: OVCAR-4 ovarian
OVCAR-5 ovarian = system: OVCAR-5 ovarian
SF-539 CNS = system: SF-539 CNS
SK-MEL-5 melanoma = system: SK-MEL-5 melanoma

With CN1C2CCC1CC(C)(O)C2 (stereo unspecified) the TGI (BT-549 breast) was over 100000 nM, the TGI (COLO 205 colon) was over 100000 nM and the TGI (MCF7 breast) was over 100000 nM. It also gave a TGI (MDA-N) of over 100000 nM, a TGI (NCI/ADR-RES ovarian) of over 100000 nM and a TGI (PC-3 prostate) of over 100000 nM. The TGI (RPMI-8226 leukemia) was over 100000 nM, the TGI (SN12C renal) was over 100000 nM and the TGI (SW-620 colon) was over 100000 nM.
In the case of O=C(N/N=C/c1cc(Br)cc(Br)c1[O-])c1ccccc1O.O=C(N/N=C/c1cc(Br)cc(Br)c1[O-])c1ccccc1O.[Cu+2], the TGI (HOP-92 NSCLC) is reported as 1280 nM, the TGI (KM20L2 colon) is reported as 2090 nM and the TGI (NCI-H522 lung) is reported as 590 nM. The TGI (OVCAR-4 ovarian) was 560 nM, the TGI (OVCAR-5 ovarian) was 2030 nM and the TGI (SF-539 CNS) was 926 nM. The TGI (SK-MEL-5 melanoma) was 844 nM.

From PubChem BioAssay (NCI)
